Laboratory results published in PubChem BioAssay AID330 (DTP/NCI, 2004).
Values joined by “and” are separate entries in the source; they are usually repeats but may differ in a detail not shown here. Identical values can stand only once. Inconclusive results and toxic doses are left out.

Test system: P388 leukemia ip, CD2F1 mice, survival T/C
Assay: NCI In Vivo Anticancer Drug Screen. Data for tumor model P388 Leukemia (intraperitoneal) in CD2F1 (CDF1) mice
Conditions: endpoint: median survival time, higher = longer survival
Summary of the method: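 Mice carrying the transplanted tumor received test compound or vehicle. Survival was recorded in each group, and the value is the treated-group measurement divided by that of the vehicle-treated control group.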

[1] = dose: 50.0 mg/kg/injection, schedule: Q01DX009 (ip), vehicle: saline
[2] = dose: 100.0 mg/kg/injection, schedule: Q01DX009 (ip), vehicle: saline
[3] = dose: 200.0 mg/kg/injection, schedule: Q01DX009 (ip), vehicle: saline
[4] = dose: 6.25 mg/kg/injection, schedule: Q01DX009 (ip), vehicle: saline
[5] = dose: 12.5 mg/kg/injection, schedule: Q01DX009 (ip), vehicle: saline
[6] = dose: 25.0 mg/kg/injection, schedule: Q01DX009 (ip), vehicle: saline
[7] = dose: 50.0 mg/kg/injection, schedule: Q01DX009 (ip), vehicle: saline with Tween-80
[8] = dose: 100.0 mg/kg/injection, schedule: Q01DX009 (ip), vehicle: saline with Tween-80
[9] = dose: 60.0 mg/kg/injection, schedule: Q01DX005 (ip), vehicle: saline with Tween-80
[10] = dose: 120.0 mg/kg/injection, schedule: Q01DX005 (ip), vehicle: saline with Tween-80
[11] = dose: 240.0 mg/kg/injection, schedule: Q01DX005 (ip), vehicle: saline with Tween-80
[12] = dose: 60.0 mg/kg/injection, schedule: Q01DX005 (ip), vehicle: saline
[13] = dose: 120.0 mg/kg/injection, schedule: Q01DX005 (ip), vehicle: saline
[14] = dose: 50.0 mg/kg/injection, schedule: Q01DX005 (ip), vehicle: Klucel (hydroxypropylcellulose) (HPC)
[15] = dose: 100.0 mg/kg/injection, schedule: Q01DX005 (ip), vehicle: Klucel (hydroxypropylcellulose) (HPC)
[16] = dose: 12.5 mg/kg/injection, schedule: Q01DX009 (ip), vehicle: Klucel (hydroxypropylcellulose) (HPC)
[17] = dose: 25.0 mg/kg/injection, schedule: Q01DX009 (ip), vehicle: Klucel (hydroxypropylcellulose) (HPC)
[18] = dose: 200.0 mg/kg/injection, schedule: Q01DX009 (ip), vehicle: saline with Tween-80
[19] = dose: 50.0 mg/kg/injection, schedule: Q01DX005 (ip), vehicle: saline with Tween-80
[20] = dose: 100.0 mg/kg/injection, schedule: Q01DX005 (ip), vehicle: saline with Tween-80
[21] = dose: 200.0 mg/kg/injection, schedule: Q01DX005 (ip), vehicle: Klucel (hydroxypropylcellulose) (HPC)

With `CC(C)(COS(C)(=O)=O)COS(C)(=O)=O` the T/C [1] was 107 % of control, the T/C (dose: 50.0 mg/kg/injection, schedule: Q01DX009 (ip), vehicle: suspension in saline) was 96 % of control and the T/C [2] was 91 % of control. For the same compound, the T/C (dose: 100.0 mg/kg/injection, schedule: Q01DX009 (ip), vehicle: suspension in saline) was 101 % of control and 91 % of control, the T/C [3] was 110 % of control and the T/C (dose: 200.0 mg/kg/injection, schedule: Q01DX009 (ip), vehicle: suspension in saline) was 104 % of control and 92 % of control. The T/C (dose: 400.0 mg/kg/injection, schedule: Q01DX009 (ip), vehicle: suspension in saline) was 112 % of control and 90 % of control.
With `O=NNc1ccc(C(=O)O)cn1` the T/C (dose: 3.12 mg/kg/injection, schedule: Q01DX009 (ip), vehicle: saline) was 108 % of control, the T/C [4] was 100 % of control and the T/C [5] was 106 % of control. The T/C [6] was 97 % of control, the T/C [1] was 100 % of control and the T/C [2] was 91 % of control. The T/C [3] was 110 % of control.
With `O=C1Nc2ccc([N+](=O)[O-])cc2/C1=C/C(=O)c1ccccc1` the T/C (dose: 3.13 mg/kg/injection, schedule: Q01DX009 (ip), vehicle: saline with Tween-80) was 101 % of control, the T/C (dose: 6.25 mg/kg/injection, schedule: Q01DX009 (ip), vehicle: saline with Tween-80) was 98 % of control and the T/C (dose: 12.5 mg/kg/injection, schedule: Q01DX009 (ip), vehicle: saline with Tween-80) was 96 % of control. The T/C [7] was 100 % of control and the T/C [8] was 108 % of control.
`COC1CC(O)(CCNc2ccc([N+](=O)[O-])cc2[N+](=O)[O-])C(O)C(CO)O1` (configuration not stated) was tested, and the T/C (dose: 20.0 mg/kg/injection, schedule: Q01DX001 (ip), vehicle: Klucel (hydroxypropylcellulose) (HPC)) was 100 % of control, the T/C (dose: 40.0 mg/kg/injection, schedule: Q01DX001 (ip), vehicle: Klucel (hydroxypropylcellulose) (HPC)) was 93 % of control and the T/C (dose: 80.0 mg/kg/injection, schedule: Q01DX001 (ip), vehicle: Klucel (hydroxypropylcellulose) (HPC)) was 94 % of control.
For `CCOC(=O)/C(C#N)=N/O`, the T/C [4] was 104 % of control and 114 % of control and 90 % of control, the T/C [5] was 102 % of control and 104 % of control and 95 % of control and the T/C [6] was 111 % of control and 97 % of control. The T/C [1] was 101 % of control and 104 % of control and 107 % of control.
In the case of `O=C(OCC1OC(C2N(c3ccccc3)CCN2c2ccccc2)C(OC(=O)c2ccccc2)C1OC(=O)c1ccccc1)c1ccccc1` (configuration not stated), the T/C (dose: 12.5 mg/kg/injection, schedule: Q01DX009 (ip), vehicle: distilled water + Tween-80) was 102 % of control, the T/C (dose: 25.0 mg/kg/injection, schedule: Q01DX009 (ip), vehicle: distilled water + Tween-80) was 102 % of control and the T/C (dose: 50.0 mg/kg/injection, schedule: Q01DX009 (ip), vehicle: distilled water + Tween-80) was 94 % of control. The T/C (dose: 100.0 mg/kg/injection, schedule: Q01DX009 (ip), vehicle: distilled water + Tween-80) was 102 % of control and the T/C (dose: 200.0 mg/kg/injection, schedule: Q01DX009 (ip), vehicle: distilled water + Tween-80) was 93 % of control.
`Cc1ccnc(NS(=O)(=O)c2ccc(N=Cc3c4ccccc4nc4cc(Cl)ccc34)cc2)n1` was tested, and the T/C [9] was 96 % of control, the T/C [10] was 93 % of control and the T/C [11] was 96 % of control.
`CCCCCCc1cc(-c2cc(CCCCCC)nc(N)n2)nc(N)n1` was tested, and the T/C [12] was 100 % of control and the T/C [13] was 115 % of control.
For `Nc1cc(F)ccc1CC(=O)O`, the T/C [12] was 103 % of control, the T/C [13] was 99 % of control and the T/C (dose: 240.0 mg/kg/injection, schedule: Q01DX005 (ip), vehicle: saline) was 99 % of control.
In the case of `O=C(Nc1ccccc1)/C(N=Nc1ccc([N+](=O)[O-])cc1Cl)=N/Nc1ccc([N+](=O)[O-])cc1Cl`, the T/C [14] was 111 % of control and the T/C [15] was 109 % of control.
With `CCCCCCNCC(=O)OCC` the T/C (dose: 50.0 mg/kg/injection, schedule: Q01DX005 (ip), vehicle: saline) was 101 % of control, the T/C (dose: 100.0 mg/kg/injection, schedule: Q01DX005 (ip), vehicle: saline) was 106 % of control and the T/C (dose: 200.0 mg/kg/injection, schedule: Q01DX005 (ip), vehicle: saline) was 110 % of control.
For `CN=c1s[se]c2ccccc12`, the T/C [16] was 102 % of control and the T/C [17] was 94 % of control.
With `O=C1/C(=C/c2cccc(O)c2)COc2ccccc21` the T/C [9] was 95 % of control, the T/C [10] was 94 % of control and the T/C [11] was 87 % of control.
For `CC(C)(C)CC(C)(C)c1ccc(OCc2ccccc2Cl)cc1`, the T/C [7] was 98 % of control, the T/C [8] was 95 % of control and the T/C [18] was 100 % of control.
In the case of `COc1cccc2c1C(=O)c1c(O)c3c(c(O)c1C2=O)C[C@@](O)(C(=O)CO)CC3OC1CC(O)C(O)C(C)O1` (some centres not stated), the T/C (dose: 6.25 mg/kg/injection, schedule: Q04DX003 (ip), vehicle: saline) was 122 % of control, the T/C (dose: 12.5 mg/kg/injection, schedule: Q04DX003 (ip), vehicle: saline) was 165 % of control and the T/C (dose: 25.0 mg/kg/injection, schedule: Q04DX003 (ip), vehicle: saline) was 183 % of control. The T/C (dose: 50.0 mg/kg/injection, schedule: Q04DX003 (ip), vehicle: saline) was 209 % of control.
In the case of `N#CC1=C(Nc2ccccc2)SC(c2cccs2)NC1=O` (configuration not stated), the T/C (dose: 60.0 mg/kg/injection, schedule: Q01DX005 (ip), vehicle: Klucel (hydroxypropylcellulose) (HPC)) was 108 % of control and the T/C (dose: 120.0 mg/kg/injection, schedule: Q01DX005 (ip), vehicle: Klucel (hydroxypropylcellulose) (HPC)) was 108 % of control.
With `CN(C)c1ccc(/C=C2/SC(=S)NC2=O)cc1` the T/C (dose: 25.0 mg/kg/injection, schedule: Q01DX005 (ip), vehicle: saline with Tween-80) was 93 % of control, the T/C [19] was 90 % of control and the T/C [20] was 87 % of control.
With `O=C(N/N=C/c1ccccc1[OH2+])c1ccncc1.O=C(N/N=C/c1ccccc1[OH2+])c1ccncc1.[Cl-].[Mn+2]` the T/C (dose: 100.0 mg/kg/injection, schedule: Q04DX002 (ip), vehicle: Klucel (hydroxypropylcellulose) (HPC)) was 112 % of control, the T/C (dose: 200.0 mg/kg/injection, schedule: Q04DX002 (ip), vehicle: Klucel (hydroxypropylcellulose) (HPC)) was 107 % of control and the T/C (dose: 400.0 mg/kg/injection, schedule: Q04DX002 (ip), vehicle: Klucel (hydroxypropylcellulose) (HPC)) was 94 % of control.
For `O=C(O)C1CN(C(=O)OCC2c3ccccc3-c3ccccc32)CS1` (configuration not stated), the T/C [19] was 94 % of control, the T/C [20] was 94 % of control and the T/C (dose: 200.0 mg/kg/injection, schedule: Q01DX005 (ip), vehicle: saline with Tween-80) was 92 % of control.
For `COc1cc(OC(=O)NCCCl)cc(OC)c1OC`, the T/C [14] was 101 % of control, the T/C [15] was 108 % of control and the T/C [21] was 92 % of control.
With `O=C1OC(c2ccc([N+](=O)[O-])cc2)=N/C1=C\c1ccc(Cl)cc1` the T/C (dose: 3.13 mg/kg/injection, schedule: Q01DX009 (ip), vehicle: Klucel (hydroxypropylcellulose) (HPC)) was 115 % of control, the T/C (dose: 6.25 mg/kg/injection, schedule: Q01DX009 (ip), vehicle: Klucel (hydroxypropylcellulose) (HPC)) was 115 % of control and the T/C [16] was 105 % of control and 88 % of control. The T/C [17] was 88 % of control.
For `COc1ccc(NC(=S)NN)cc1`, the T/C (dose: 37.5 mg/kg/injection, schedule: Q01DX009 (ip), vehicle: saline with Tween-80) was 95 % of control, the T/C (dose: 75.0 mg/kg/injection, schedule: Q01DX009 (ip), vehicle: saline with Tween-80) was 90 % of control and the T/C (dose: 100.0 mg/kg/injection, schedule: Q04DX003 (ip), vehicle: saline with Tween-80) was 87 % of control.
`[O-][n+]1c2c(cc3ccccc31)Cc1ccccc1-2` was tested, and the T/C [14] was 109 % of control, the T/C [15] was 101 % of control and the T/C [21] was 106 % of control.
`COC(=O)N1CCc2c([nH]oc2=O)C1` was tested, and the T/C [1] was 90 % of control, the T/C [2] was 88 % of control and the T/C [3] was 89 % of control.
For `COc1ccc([Si](C)(C)CNCCSS(=O)(=O)O)cc1`, the T/C [7] was 90 % of control, the T/C [8] was 95 % of control and the T/C [18] was 90 % of control.
With `CC1(C)CC(=O)C2=C(C1)NC(=O)CC2` the T/C [9] was 101 % of control, the T/C [10] was 101 % of control and the T/C [11] was 96 % of control.
`CC/C(=N/NS(=O)(=O)c1ccc(C)cc1)c1ccc(O)cc1` was tested, and the T/C (dose: 100.0 mg/kg/injection, schedule: Q04DX003 (ip), vehicle: saline) was 107 % of control, the T/C (dose: 200.0 mg/kg/injection, schedule: Q04DX003 (ip), vehicle: saline) was 100 % of control and the T/C (dose: 400.0 mg/kg/injection, schedule: Q04DX003 (ip), vehicle: saline) was 98 % of control.
